{"source": "patent US20110071204A1", "about": "“PERCUTANEOUS ABSORPTION PREPARATION” (KYORIN PHARMACEUTICAL CO., LTD., priority 2005, published 2011)", "key": {"[1]": {"system": "bladder contraction induced by methacholine", "format": "in vivo", "details": "guinea pig", "source_text": "Male Std:Hartley guinea pigs (Japan SLC Inc., week of age at the time of use: 6 weeks of age, from 340.6 to 488.0 g in body weight) were anesthetized with urethane. The abdominal region was subjected to median incision, and then both sides of ureters were ligated in order to prevent inflow of urine from the kidney to the bladder. After ligation of the bladder cervix, a catheter for intravesical pressure measurement use was inserted from the bladder apex and fixed by ligation. Thereafter, in order to measure intravesical pressure, 1 ml of physiological saline was injected into the bladder. Next, a catheter was indwelled in the left jugular vein. The intravesical pressure was measured via an amplifier for strain pressure use (Nihon Kohden Corporation, CARRIER ANPLIFIER AP-601G) by connecting the catheter for intravesical pressure measuring use to a pressure transducer (Nihon Kohden Corporation, LIFE KIT DX-100). By inserting a catheter into the jugular vein, imidafenacin was administered by continuous intravenous infusion (100 μl/kg/min). After 75 minutes of the commencement of administration of the agent liquid, methacholine (10 μg/kg) was intravenously administered to induce bladder contraction. The bladder contraction inhibitory activity was evaluated using peak height of the bladder contraction induced by methacholine as the index. […]"}, "[2]": {"system": "airway contraction induced by methacholine", "test": "Airway contraction measuring method (Konzett & Rossler), methacholine-induced", "format": "in vivo", "details": "guinea pig", "experimental": "Male Std:Hartley guinea pigs (Japan SLC Inc., week of age at the time of use: 6 weeks of age, from 340.6 to 488.0 g in body weight) were anesthetized with urethane, and a canula was inserted into the trachea. The trachea canula was connected to a quantitative artificial ventilator, and under artificial respiration, a catheter was indwelled in the left jugular vein. Measurement of the airway contraction was carried out by the Konzett & Rossler method. Guinea pigs were subjected to artificial respiration at a ventilation of 4 ml/animal and a ventilation frequency of 70 times/minute. Changes in the ventilation pressure were measured by a transducer (UGO BASILE, BRONCHOSPASM TRANSDUCER 7020) connected to the sub-bypass of the trachea canula. By inserting a catheter into the jugular vein, imidafenacin was administered by continuous intravenous infusion (100 μl/kg/min). After 75 minutes of the start of administration of the agent liquid, methacholine (10 μg/kg) was intravenously administered to induce airway contraction. The airway contraction inhibitory activity was evaluated using peak height of the airway contraction induced by methacholine as the index.\nIn this connection, the blood concentration measurement was carried out by LC/MS/MS using blood plasma."}, "[3]": {"details": "continuous intravenous infusion, methacholine 10 μg/kg after 75 minutes"}}, "data": [{"smiles": "Cc1nccn1CCC(C(N)=O)(c1ccccc1)c1ccccc1", "note": "[imidafenacin, 4-(2-methyl-1-imidazolyl)-2,2-diphenylbutylamide]", "values": [{"measurement": "ID50, bladder contraction inhibitory activity", "setting": "[1]; [3]", "result": 0.064, "unit": "µg/kg/min"}, {"measurement": "blood concentration at around the ID50 value (intravesical pressure)", "setting": "[1]; male, Hartley, in vivo", "result": "about 1 ng/ml"}, {"measurement": "ID50, airway contraction inhibitory activity", "setting": "[2]; [3]", "result": 0.061, "unit": "µg/kg/min"}, {"measurement": "blood concentration at around the ID50 value (airway contraction)", "setting": "[2]; plasma, LC/MS/MS", "result": "about 1 ng/ml"}]}]}
